{"source": "patent US5622983A", "about": "“N-substituted cycloalkyl and polycycloalkyl α-substituted Trp-Phe- and phenethylamine derivatives” (Warner-Lambert Company, priority 1995, dated 1997)", "key": {"[1]": {"test": "Rat Elevated X-Maze Test", "assay_type": "in vivo", "details": "0.01 to 1.0 mg/kg s.c.", "description": "The dose was equivalent to 0.1 mg/kg p.o. compound 20."}, "[2]": {"test": "Withdrawal from long-term drug or alcohol treatment, mouse light/dark box test", "assay_type": "in vivo", "description": "The effect of the compounds of the instant invention is illustrated, for example, in the mouse \"light/dark box\" test in FIGS. 5-12.\nIn FIG. 5, five animals were given nicotine, 0.1 mg/kg i.p.b.d. for 14 days. After a 24-hour withdrawal period, compound (20) was given at 1.0 mg/kg i.p.b.d.\nFIG. 6 illustrates the effect of long-term treatment and withdrawal from nicotine using compound (20A). Five mice were given nicotine at 0.1 mg/kg i.p.b.d. for 14 days. After a withdrawal period of 24 hours, compound (20A) was given at 10 mg/kg i.p.b.d.\nFIG. 7 illustrates the effect of long-term treatment and withdrawal from diazepam with intervention with compound (20). Five mice were given diazepam, at 10 mg/kg i.p.b.d. for seven days. Withdrawal was for a 24-hour period; compound 20 was given at 1.0 mg/kg i.p.b.d.\nFIG. 8 illustrates the effect of compound (20A) on the long-term treatment and withdrawal from diazepam. Five mice were given diazepam at 10 mg/kg i.p.b.d. for seven days. After a withdrawal period of 24 hours, compound (20A) was given at 10 mg/kg i.p.b.d.\nFIG. 9 illustrates the effect compound (20A) on the long-term treatment and withdrawal from alcohol. Five mice were given alcohol in drinking water 8% w/v for 14 days. After a withdrawal period of 24 hours, compound (20) was given at 1.0 mg/kg i.p.b.d.\nFive mice were given alcohol in drinking water, 8% w/v for 14 days. After a withdrawal period of 24 hours, compound (20A) was given at 10 mg/kg i.p.b.d.\nFIG. 11 illustrates the effectiveness in the long-term treatment and withdrawal from cocaine. Five mice were given cocaine as 1.0 mg/kg i.p.b.d. for 14 days.\nFive mice were given cocaine at 1.0 mg/kg i.p.b.d. for 14 days after a withdrawal period of 24 hours, compound (20a) was given at 1.0 mg/kg i.p.b.d."}, "[3]": {"system": "LoVo cells", "test": "In vitro proliferation of LoVo cells (tetrazolium salt colorimetric assay)", "assay_type": "cell-based, human", "description": "LoVo was obtained from the American Tissue Type Collection (ATCC CCL 229). Five×10^3 to 1×10^4 LoVo cells were cultured in 200 μL of serum containing RPMI in 96-well flat-bottomed titre plates for 24 hours. […] Cell proliferation was measured indirectly using a tetrazolium salt colorimetric assay for cellular respiration (Merlin JL, Azzi S, Lignon D, Ramacci C, Zeghari N, Guillemin F. MTT assays allow quick and reliable measurement of the response of human tumor cell to photodynamic therapy. Eur. J. Cancer, 28(8/9):1452-1458 (1992))."}, "[4]": {"test": "Aspirin-induced gastric damage", "assay_type": "in vivo, rat", "details": "10 mg/kg PO", "description": "Aspirin-induced gastric damage was assessed in groups of 10 rats each.\nAll animals were fasted for 24 hours before and throughout the experiment. Drug or vehicle was given 10 minutes before an oral dose of 1 mL of a 45-mg/mL suspension of aspirin in 0.5% carboxymethylcellulose (CMC).\nThe animals were sacrificed five hours after aspirin administration and the stomachs removed and opened for examination."}, "[5]": {"test": "Flexor response in stimulated spinalized decerebrated rat preparation"}, "[6]": {"test": "Antagonism of intra-accumbens amphetamine hyperactivity (antipsychotic activity)", "assay_type": "in vivo, rat", "details": "10 mg/kg intraperitoneal; amphetamine 20 μg", "description": "Male Sprague Dawley (CD) Bradford strain rats were used. The rats were housed in groups of five at a temperature of 21°±2° C. on a 12 hour light-dark cycle of lights-on between 07 hours 00 minutes and […]. Rats were fed CRM diet (Labsure) and allowed water ad libitum.\nRats were anesthetized with chloral hydrate (400 mg/kg SC) and placed in a Kopf stereotaxic frame. Chronically indwelling guide cannulae (constructedof stainless steel tubing 0.65 mm diameter held bilaterally in Parspex holders) were implanted using standard stereotaxic techniques to terminate 3.5 mm above the center of the nucleus accumbens (Ant. 9.4, Vert. 0.0, Lat. 1.6) or 5.0 mm above the central nucleus of the amygdala (Ant. 5.8, Vert. -1.8, Lat. ±4.5) (atlas of De Groot, 1959). The guides were kept patent during a 14-day recovery period using stainless steel stylers, 0.3 mm diameter, which extended 0.5 mmbeyond the guide tips.\nRats were manually restrained and the stylers removed. Intracerebral injection cannulae, 0.3 mm diameter, were inserted and drugs delivered in a volume of 0.5 μl over 5 seconds (a further 55 seconds was allowed for deposition) from Hamilton syringes attached via polythene tubing to the injection units. […]\nThe abilities of the compounds (20) and (20A) to inhibit the hyperactivity caused by the injection of amphetamine into the nucleus accumbens of the rat was measured. […]"}}}
{"smiles": "CC(Cc1c[nH]c2ccccc12)(NC(=O)OC1C2CC3CC(C2)CC1C3)C(=O)NCC(NC(=O)CCC(=O)O)c1ccccc1", "note": "(stereo not drawn) [Example 20, [R-(R*,R*)-4-[[2-[[3-(1H-indol-3-yl)-2-methyl-1-oxo-2-[[(tricyclo[3.3.1.1^3,7]dec-2-yloxy)carbonyl]amino]propyl]amino]-1-phenylethyl]amino]-4-oxobutanoic acid]", "values": [{"measurement": "anxiolytic effect, time spent in the open arm end section (FIG. 14)", "setting": "[1]", "result": "anxiolytic effects"}, {"measurement": "time spent in the light section after withdrawal from alcohol (FIG. 9)", "setting": "[2]; alcohol 8% w/v in drinking water 14 days, 24-hour withdrawal, compound 1.0 mg/kg i.p.b.d.", "result": "demonstrates the effectiveness of the compound"}, {"measurement": "time in the light section after withdrawal from cocaine (FIG. 11)", "setting": "[2]; cocaine 1.0 mg/kg i.p.b.d. 14 days", "result": "increased time in the light section"}, {"measurement": "time spent in the light section after withdrawal from diazepam (FIG. 7)", "setting": "[2]; diazepam 10 mg/kg i.p.b.d. seven days, 24-hour withdrawal, compound 1.0 mg/kg i.p.b.d.", "result": "increased time spent in the light section"}, {"measurement": "time spent in the light area after withdrawal from nicotine (FIG. 5)", "setting": "[2]; nicotine 0.1 mg/kg i.p.b.d. 14 days, 24-hour withdrawal, compound 1.0 mg/kg i.p.b.d.", "result": "increased time spent in the light area"}, {"measurement": "cellular proliferation expressed as a percentage of control", "setting": "[3]; 10^-1 M, 24 hours", "result": "58.93±7.30", "unit": "%"}, {"measurement": "cellular proliferation expressed as a percentage of control", "setting": "[3]; 10^-1 M, 48 hours", "result": "82.60±2.33", "unit": "%"}, {"measurement": "cellular proliferation expressed as a percentage of control", "setting": "[3]; 10^-1 M, 72 hours", "result": "80.53±3.06", "unit": "%"}, {"measurement": "cellular proliferation expressed as a percentage of control", "setting": "[3]; 10^-7 M, 24 hours", "result": "81.60±6.62", "unit": "%"}, {"measurement": "cellular proliferation expressed as a percentage of control", "setting": "[3]; 10^-7 M, 48 hours", "result": "95.33±2.50", "unit": "%"}, {"measurement": "cellular proliferation expressed as a percentage of control", "setting": "[3]; 10^-7 M, 72 hours", "result": "84.71±6.97", "unit": "%"}, {"measurement": "cellular proliferation expressed as a percentage of control", "setting": "[3]; 10^-8 M, 24 hours", "result": "70.13±7.15", "unit": "%"}, {"measurement": "cellular proliferation expressed as a percentage of control", "setting": "[3]; 10^-8 M, 48 hours", "result": "93.20±4.04", "unit": "%"}, {"measurement": "cellular proliferation expressed as a percentage of control", "setting": "[3]; 10^-8 M, 72 hours", "result": "85.93±4.19", "unit": "%"}, {"measurement": "cellular proliferation expressed as a percentage of control", "setting": "[3]; 10^-9 M, 24 hours", "result": "62.47±7.20", "unit": "%"}, {"measurement": "cellular proliferation expressed as a percentage of control", "setting": "[3]; 10^-9 M, 48 hours", "result": "82.73±2.97", "unit": "%"}, {"measurement": "cellular proliferation expressed as a percentage of control", "setting": "[3]; 10^-9 M, 72 hours", "result": "79.07±3.18", "unit": "%"}, {"measurement": "cellular proliferation expressed as a percentage of control", "setting": "[3]; 10^-11 M, 24 hours, LoVo, serum-free RPMI", "result": "66.47±6.72", "unit": "%"}, {"measurement": "cellular proliferation expressed as a percentage of control", "setting": "[3]; 10^-11 M, 48 hours", "result": "80.47±2.64", "unit": "%"}, {"measurement": "cellular proliferation expressed as a percentage of control", "setting": "[3]; 10^-11 M, 72 hours", "result": "78.87±3.25", "unit": "%"}, {"measurement": "concentrations with significant inhibition", "setting": "[3]; after 24 and 72 hours (ANOVA)", "result": "10^-11 to 10^-8 M"}, {"measurement": "concentrations with significant inhibition", "setting": "[3]; at 48 hours (ANOVA)", "result": "10^-11 to 10^-9 M"}, {"measurement": "time of maximum inhibition", "setting": "[3]; cultures not refed with compound", "result": 24, "unit": "h"}, {"measurement": "reduction in ulcer formation", "setting": "[4]", "result": 48, "unit": "%"}, {"measurement": "ulcer score", "setting": "[4]; ±SD, saline control 12.1±6.85", "result": "6.3±4.14"}, {"measurement": "flexor response (FIG. 16)", "setting": "[5]; compound alone, similar to morphine", "result": "depresses the flexor response"}, {"measurement": "duration of the potentiated effect", "setting": "[5]; given with morphine", "result": 3, "unit": "h"}, {"measurement": "effect on flexor response when given with morphine (FIG. 16)", "setting": "[5]; given with morphine", "result": "greatly potentiates the effect"}, {"measurement": "hyperactivity caused by intra-accumbens injection of amphetamine", "setting": "[6]", "result": "reduced the hyperactivity"}]}
